3 compounds from patent publication US5747490A, “Alpha 1b adrenergic receptor antagonists” (Merck & Co., Inc., priority 1996, dated 1998) can be followed below.

The target in test [1] is T1, human alpha 1a adrenergic receptor (Homo sapiens, UniProt P35348).
T1 construct: host or cells: stably transfected human alpha 1a cell line (ATCC CRL 11140)
T1 sequence (P35348 1-466): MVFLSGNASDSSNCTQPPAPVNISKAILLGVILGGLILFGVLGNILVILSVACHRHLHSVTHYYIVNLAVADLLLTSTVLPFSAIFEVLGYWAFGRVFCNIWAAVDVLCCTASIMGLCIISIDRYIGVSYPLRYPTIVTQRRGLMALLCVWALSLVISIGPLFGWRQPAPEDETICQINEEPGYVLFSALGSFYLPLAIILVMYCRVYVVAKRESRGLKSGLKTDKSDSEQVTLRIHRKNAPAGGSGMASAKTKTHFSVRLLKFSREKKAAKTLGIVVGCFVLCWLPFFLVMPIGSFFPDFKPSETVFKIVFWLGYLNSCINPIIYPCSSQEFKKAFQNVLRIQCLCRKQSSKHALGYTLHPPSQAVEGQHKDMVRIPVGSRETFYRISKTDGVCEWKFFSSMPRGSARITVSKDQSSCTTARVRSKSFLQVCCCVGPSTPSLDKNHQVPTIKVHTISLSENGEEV
Description: Selective Binding assay, alpha 1a ([125I]-HEAT competition binding). To be noted: Table 1, cloned human receptors; read-out: alpha adrenergic receptor subtype binding, 1a. The procedure:
(§1) These competition binding reactions (total volume=200 μl) contained 50 mM Tris-HCl pH 7.4, 5 mM EDTA, 150 mM NaCl, 100 pM [^125 I]-HEAT, membranes prepared from cell lines transfected with the respective alpha 1 subtype expression plasmid and increasing amounts of unlabeled ligand. Reactions were incubated at room temperature for one hour with shaking. Reactions were filtered onto Whatman GF/C glass fiber filters with a Inotec 96 well cell harvester. Filters were washed three times with ice cold buffer and bound radioactivity was determined (Ki).

Test [2] deals with T2, human alpha 2b adrenergic receptor (Homo sapiens, UniProt P18089).
T2 construct: expressed in transfected cells; host or cells: cloned human receptor
T2 sequence (P18089 1-450): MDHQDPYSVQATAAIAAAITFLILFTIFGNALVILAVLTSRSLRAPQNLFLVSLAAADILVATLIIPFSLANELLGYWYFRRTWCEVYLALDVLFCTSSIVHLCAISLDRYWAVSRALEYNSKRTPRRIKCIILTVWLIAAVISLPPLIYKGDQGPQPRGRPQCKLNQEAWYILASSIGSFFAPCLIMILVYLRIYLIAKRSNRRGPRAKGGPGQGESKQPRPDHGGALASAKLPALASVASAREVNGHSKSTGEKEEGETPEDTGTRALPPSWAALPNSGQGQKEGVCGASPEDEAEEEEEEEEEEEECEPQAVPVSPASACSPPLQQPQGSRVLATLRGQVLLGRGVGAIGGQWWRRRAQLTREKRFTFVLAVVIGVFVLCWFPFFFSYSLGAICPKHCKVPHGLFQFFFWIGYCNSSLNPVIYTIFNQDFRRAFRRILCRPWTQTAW
Nature of the test: Receptor binding, cloned human alpha 2b. To be noted: for Ki: Table 1, cloned human receptors, read-out: alpha adrenergic receptor subtype binding, 2b. The text has this:
(§2) This is accomplished according to methods known in the art using other receptors responsible for mediating diverse biological functions. [See e.g., PCT International Application Publication No. WO94/10989, published 26 May 1994; U.S. Pat. No. 5,403,847, issued Apr. 4, 1995, the contents of which are hereby incorporated by reference]. Compounds which are both selective amongst the various human alpha 1 adrenergic receptor subtypes and which have low affinity for other receptors, such as the alpha 2 adrenergic receptors, the β-adrenergic receptors, the muscarinic receptors, the serotonin receptors, and others are particularly preferred. The absence of these non-specific activities may be confirmed by using cloned and expressed receptors in an analogous fashion to the method disclosed herein for identifying compounds which have high affinity for the various human alpha 1 adrenergic receptors. Furthermore, functional biological tests are used to confirm the effects of identified compounds as alpha 1b adrenergic receptor antagonists.
(§3) Receptor binding data for representative compounds of the present invention in cloned human receptors is shown below in Table 1.

The target in test [3] is T3, human alpha 1b adrenergic receptor (Homo sapiens, UniProt P35368).
T3 construct: host or cells: stably transfected human alpha 1b cell line (ATCC CRL 11139)
T3 sequence (P35368 1-520): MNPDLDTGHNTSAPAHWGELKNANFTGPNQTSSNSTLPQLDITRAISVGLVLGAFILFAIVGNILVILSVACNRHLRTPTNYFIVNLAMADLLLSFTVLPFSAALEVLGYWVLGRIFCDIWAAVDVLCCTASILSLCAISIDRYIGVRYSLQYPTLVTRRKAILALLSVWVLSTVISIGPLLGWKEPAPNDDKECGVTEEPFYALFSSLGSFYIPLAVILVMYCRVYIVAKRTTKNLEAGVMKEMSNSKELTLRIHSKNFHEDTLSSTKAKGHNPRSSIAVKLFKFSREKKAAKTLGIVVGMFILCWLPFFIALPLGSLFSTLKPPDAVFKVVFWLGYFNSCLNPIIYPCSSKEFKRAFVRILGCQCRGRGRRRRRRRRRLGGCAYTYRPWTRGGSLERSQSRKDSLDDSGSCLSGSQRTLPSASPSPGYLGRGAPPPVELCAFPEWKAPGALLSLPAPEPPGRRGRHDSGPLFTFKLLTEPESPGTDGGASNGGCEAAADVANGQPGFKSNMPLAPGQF
Nature of the test: Alpha 1b Adrenergic Receptor Binding ([125I]-HEAT competition binding). Particulars: Table 1, cloned human receptors; read-out: alpha adrenergic receptor subtype binding, 1b. The protocol:
as §3
Screening assay: Alpha 1b Adrenergic Receptor Binding
as §1, with “Membranes prepared from the stably transfected human alpha 1b cell line (ATCC CRL 11139) were used to identify compounds that bind to the human alpha 1b adrenergic receptor. These” for “These”, “from the alpha 1b” for “from”, “line” for “lines transfected with the respective alpha 1 subtype expression plasmid”

For test [4], the target named is T4, human alpha 1d adrenergic receptor (Homo sapiens, UniProt P25100).
T4 construct: host or cells: stably transfected human alpha 1d cell line (ATCC CRL 11138)
T4 sequence (P25100 1-572): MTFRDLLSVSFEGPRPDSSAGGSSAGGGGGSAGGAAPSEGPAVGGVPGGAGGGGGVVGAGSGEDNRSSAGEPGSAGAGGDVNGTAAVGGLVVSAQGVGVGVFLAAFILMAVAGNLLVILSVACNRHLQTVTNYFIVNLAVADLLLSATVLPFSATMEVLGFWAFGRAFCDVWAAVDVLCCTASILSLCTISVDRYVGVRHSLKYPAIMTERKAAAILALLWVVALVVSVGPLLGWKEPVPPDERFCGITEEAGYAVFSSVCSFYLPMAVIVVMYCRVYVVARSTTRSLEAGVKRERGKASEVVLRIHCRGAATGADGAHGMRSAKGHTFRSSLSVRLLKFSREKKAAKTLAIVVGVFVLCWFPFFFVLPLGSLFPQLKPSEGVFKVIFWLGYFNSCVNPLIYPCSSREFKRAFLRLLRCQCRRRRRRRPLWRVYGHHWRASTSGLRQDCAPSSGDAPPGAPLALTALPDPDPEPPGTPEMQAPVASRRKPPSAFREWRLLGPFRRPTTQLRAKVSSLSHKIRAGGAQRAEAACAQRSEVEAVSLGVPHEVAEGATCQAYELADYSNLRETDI
Nature of the test: Selective Binding assay, alpha 1d ([125I]-HEAT competition binding). Particulars: Table 1, cloned human receptors; read-out: alpha adrenergic receptor subtype binding, 1d. The procedure:
as §1

Test [5] deals with T5, human alpha 2c adrenergic receptor (Homo sapiens, UniProt P18825).
T5 construct: expressed in transfected cells; host or cells: cloned human receptor
T5 sequence (P18825 1-462): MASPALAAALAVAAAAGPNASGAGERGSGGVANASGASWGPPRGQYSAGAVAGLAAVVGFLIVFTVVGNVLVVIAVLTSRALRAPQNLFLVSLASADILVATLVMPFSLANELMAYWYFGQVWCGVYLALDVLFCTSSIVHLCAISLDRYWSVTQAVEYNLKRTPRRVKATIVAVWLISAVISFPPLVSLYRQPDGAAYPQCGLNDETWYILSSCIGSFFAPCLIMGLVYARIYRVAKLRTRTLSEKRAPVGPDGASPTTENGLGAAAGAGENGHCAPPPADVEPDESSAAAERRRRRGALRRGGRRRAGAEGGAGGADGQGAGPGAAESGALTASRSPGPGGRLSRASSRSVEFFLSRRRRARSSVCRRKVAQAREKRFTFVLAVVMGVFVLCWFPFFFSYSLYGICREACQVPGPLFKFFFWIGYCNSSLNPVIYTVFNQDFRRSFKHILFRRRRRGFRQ
Description: Receptor binding, cloned human alpha 2c. Particulars: for Ki: Table 1, cloned human receptors, read-out: alpha adrenergic receptor subtype binding, 2c.
Excerpt: as §2, §3

In test [6] the target is T6, human alpha 2a adrenergic receptor (Homo sapiens, UniProt P08913).
T6 construct: expressed in transfected cells; host or cells: cloned human receptor
T6 sequence (P08913 1-465): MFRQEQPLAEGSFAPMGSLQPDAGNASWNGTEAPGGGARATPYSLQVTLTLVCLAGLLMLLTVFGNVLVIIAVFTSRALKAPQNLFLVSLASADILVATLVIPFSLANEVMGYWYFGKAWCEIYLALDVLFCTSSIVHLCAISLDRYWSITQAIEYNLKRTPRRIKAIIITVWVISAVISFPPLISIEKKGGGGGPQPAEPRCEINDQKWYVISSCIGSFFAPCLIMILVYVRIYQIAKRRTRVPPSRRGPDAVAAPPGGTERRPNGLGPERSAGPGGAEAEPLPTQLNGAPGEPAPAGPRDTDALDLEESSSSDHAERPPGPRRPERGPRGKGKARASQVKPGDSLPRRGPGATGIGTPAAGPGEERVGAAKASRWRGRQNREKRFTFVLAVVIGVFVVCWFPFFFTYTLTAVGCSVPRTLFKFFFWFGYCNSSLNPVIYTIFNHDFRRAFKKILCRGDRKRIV
Nature of the test: Receptor binding, cloned human alpha 2a. Particulars: for Ki: Table 1, cloned human receptors, read-out: alpha adrenergic receptor subtype binding, 2a.
Excerpt: as §2, §3

As for `COc1cc2nc(N3CCN(C(=O)OCc4ccccc4)[C@H](C(=O)NC(C)(C)C)C3)nc(N)c2cc1OC` [Compound 2a, (S)-1-(4-Amino-6,7-dimethoxy-2-quinazolinyl)-4-[(benzyloxy)carbonyl]-3-(1,1-dimethylethylamino)carbonyl piperazine], the Ki is 0.463 µM in test [1]; greater than 10 µM in test [2]; 0.001 µM in test [3]; 0.029 µM in test [4]; 0.715 µM in test [5]; 0.683 µM in test [6].
On to `COc1cc2nc(N3CCN[C@H](C(=O)NC(C)(C)C)C3)nc(N)c2cc1OC` [Compound 3a, (S)-1-(4-Amino-6,7-dimethoxy-2-quinazolinyl)-3-(1,1-dimethylethylamino)carbonyl piperazine], for which the Ki was 1.19 µM in test [1]; greater than 10 µM in test [2]; 0.0027 µM in test [3]; 0.111 µM in test [4]; 0.736 µM in test [5]; 1.17 µM in test [6].
For the compound `COc1cc2nc(N3CCN(C(=O)c4ccco4)[C@H](C(=O)NC(C)(C)C)C3)nc(N)c2cc1OC` [Compound 4a], the figures for the Ki in test [1], in test [3] and in test [4] were greater than 3.67 µM, 0.0034 µM and 0.097 µM, respectively. The inhibition at 1 µM in test [2] (read-out: alpha adrenergic receptor subtype binding, 2b, % @ 1 uM) came to 16%; in test [5] (read-out: alpha adrenergic receptor subtype binding, 2c, % @ 1 uM), 42%; in test [6] (read-out: alpha adrenergic receptor subtype binding, 2a, % @ 1 uM) it was 23%. In addition, the inhibition at 10 µM amounted to 23% in test [2] (read-out: alpha adrenergic receptor subtype binding, 2b, % @ 10 uM); 71% in test [5] (read-out: alpha adrenergic receptor subtype binding, 2c, % @ 10 uM); 65% in test [6] (read-out: alpha adrenergic receptor subtype binding, 2a, % @ 10 uM).
